The source of these data is paper PMC7070709, “Design, Synthesis, and In Vitro Evaluation of Hydroxybenzimidazole-Donepezil Analogues as Multitarget-Directed Ligands for the Treatment of Alzheimer’s Disease” (Molecules, 2020).

Series [1] is described as follows: Cu(II) chelation by potentiometry. In kind it is physicochemical. The settings on record: pH 7.4; read-out: conditional dissociation constant (K´d) for the copper complex. The source says: The metal chelating ability of hybrids 7 and 12, due to the BIM bidentate unity with (N,O) coordination mode, was studied by potentiometry. Figure 3A,B show a change in the deprotonation profile of the ligand titration curves due to the presence of the metal ions. In fact, the curves for the Cu(II)/L systems lie well below that of the ligand, while for the Zn(II)/L systems stay under for a > −1 (compound 7) or a > 0 (compound 12), thus supporting the formation of 1:1 and 1:2 M/L ratio complexes with the deprotonated and mono-protonated forms of the ligand and with relative metal dependent stability order (Cu > Zn). Table 1 contains the equilibrium models obtained from the fitting analysis of the potentiometric curves by program Hyperquad. In these equilibrium models, which the coordination core of the compounds integrates the bidentate (N,O) BIM moiety, MHL and MH2L2 correspond to species with the ligand containing one protonated nitrogen atom at the piperazine moiety, ML and ML2 correspond to complexes involving the completely deprotonated form of the ligand while MH-1L2 are mixed ligand-hydroxo metal complexes.
Solutions: the aqueous copper (CuCl2, 0.015 M) and zinc (ZnCl2, 0.0156 M) stock solutions for potentiometric equilibrium studies were prepared from 1000 ppm standards (Titrisol) and their metal content was evaluated by atomic absorption. The titrant solution (0.1 M KOH) was obtained from a carbonate-free commercial concentrate (Titrisol) and standardized by potentiometric titration with potassium hydrogen phthalate. The titrant solution was discarded whenever the percentage of carbonate (Gran’s method) was about 0.5% of the total amount of base.
Measurements: compounds 7 and 12 were titrated in 50% (w/w) DMSO/H2O medium, at T = 25.0 ± 0.1 °C and ionic strength (I) 0.1 M KCl, using 0.1 M KOH as titrant. Both glass and Ag/AgCl reference electrodes were previously conditioned in DMSO/H2O mixtures with increasing amounts of DMSO and the response of the glass electrode was controlled by strong acid–strong base (HCl/KOH) calibrations with the determination of the Nernst parameters by Gran’s method. […] All titrations were performed in duplicate and under the stated experimental conditions the pKw value (13.6) was determined and subsequently used in the computations. The stepwise protonation constant of the ligand, Ki = [HiL]/([Hi–1L][H]), and the overall metal–complex stability constants, βMmHhLl = [MmHhLl]/([M]^m[H]^h[L]^l), were calculated by fitting the potentiometric titration data with Hyperquad 2008 [26]. The metal hydrolysis constants were determined under the defined experimental conditions (I = 0.1 M KCl, 50% w/w DMSO/H2O, T = 25.0 ± 0.1 °C) and the following values of stability constants were included in the fitting of experimental data towards the equilibrium models related to the Cu^2+/L and Zn^2+/L systems: log βCu2H−2 = −9.99; log βZnH−2 = −14.79, log βZnH−3 = −23.48. Species distribution curves were plotted with the Hyss program.

Series [2] deals with T1, AChE (type VI-S, from electric eel) (Electrophorus electricus, UniProt O42275).
T1 construct: purchased type VI-S
To be noted: read-out: TcAChE Inhibition IC50; cited from earlier work.

The target in series [3] is T2, Aβ1–42 (Homo sapiens, UniProt P05067).
T2 construct: Aβ1–42 (40 μM) was incubated at 37 °C, for 24 h with or without Cu(II) (40 μM)
The arrangement: method as in PMID 32171933. The settings on record: footnote d, Cinhibitor = 80 µM; cited from earlier work.

Series [4] has as its target T3, Aβ1–42 with Cu(II) (Homo sapiens, UniProt P05067).
T3 construct: Aβ1–42 (40 μM) was incubated at 37 °C, for 24 h with or without Cu(II) (40 μM)
The arrangement: method as in PMID 32171933. The settings on record: copper 40 µM; footnote d, Cinhibitor = 80 µM; cited from earlier work.

For series [5] the following is noted: 50% w/w DMSO/water, I = 0.1 M KCl, 25.0 °C; cited from earlier work.
For series [6] the following is noted: pH 7.4, CL/CM = 10, CM = 10^−6 M; cited from earlier work.
For series [7] the following is noted: pH 7.4, CL/CM = 10, CM = 10^−6 M; cited from earlier work. The source holds these as a separate data set.
The target in series [8] is T1, AChE (type VI-S, from electric eel). Put plainly: AChE inhibition, adaptation of Ellman's method. It is filed as biochemical. To be noted: means of three independent experiments ± SD, read-out: TcAChE Inhibition IC50. The method, then:
The inhibition of AChE by the DNP-BIM hybrids herein studied was assayed by using a variation of Ellman´s test and the IC50 values obtained are included in Table 2. […]. An adaptation of the Ellman´s method, previously described, was used to measure the acetylcholinesterase inhibitory activity. The assay solution contained 374 µL of 4-(2-hydroxyethyl)-1-piperazineethanesulfonic acid (HEPES) buffer (50 mM, pH 8.0), 476 µL of 5,5’-dithiobis-(2-nitrobenzoic acid) (DTNB, 3 mM), a variable volume (10–50 µL) of the stock solution of each compound in methanol (1 mg/mL), 25 µL of AChE (type VI-S, from electric eel) stock solution, and the necessary amount of methanol to obtain 0.925 mL of sample mixture in a 1 mL cuvette. The samples were incubated for 15 min and then 75 µL of acetylthiocholine iodide (AChI) solution (16 mM) was added. The reaction was monitored for 5 min at 405 nm. Assays were run with a blank containing all the components except AChE, which was replaced by HEPES buffer. The rates of the reaction were calculated as well as the enzyme activity. A control reaction was carried out using methanol as a sample solution and it was considered as 100% activity.
The inhibition curves were obtained by plotting the percentage of enzymatic inhibition versus inhibitor concentration and a calibration curve was got from which the linear regression parameters were obtained.
On the technique in general: In Ellman's method for cholinesterases, released thiocholine reacts with DTNB.

The target of series [9] is T2, Aβ1–42. Put plainly: Inhibition of self-mediated Aβ1–42 aggregation (thioflavin T fluorescence). It is filed as biochemical. The settings on record: inhibitor 40 µM, Aβ1–42 40 μM, 24 h, 37 °C; read-out: Aβ1–42 Aggregation Inhibition, Self-Induced. The method, then: (§1) The anti-amyloidogenic capacity of the compounds was also evaluated in vitro, in the absence and presence of Cu(II), based on the measurement of the fluorescence emission of Thioflavin T (ThT), a stain known by its Aβ fibril binding capacity. This binding interaction can be analyzed by fluorimetry, since the presence of ThT-fibrils increases the absorbance and the emission of the ThT dye, and it also induces red shifts on the absorbance (from 385 to 446 nm) and emission peaks (from 445 to 485 nm). All the measurements were performed after incubation (24 h, 37 °C) of the self-mediated and Cu^2+-induced Aβ aggregates in the presence/absence of the compounds under evaluation.
(§2) Herein, due to solubility problems of some compounds in the phosphate buffer (0.215 M, pH 8.0) of the working medium, the assays were carried out in the presence of 40 μM concentration of inhibitor and 20 μM in the case of compound 4, instead of 80 μM as previously reported. […] The activity dependence on ligand structural features may be mainly explained by the different ability for intercalation into the fibrils, as already assumed for other inhibitors. […] The data obtained for compounds 6 and 7 indicate that the presence of R1 = F, -NO2 substituents in the BIM have some small positive effect on the inhibition of Aβ aggregation.
(§3) The Aβ peptide was treated with 1,1,1,3,3,3-hexafluoropropan-2-ol (HFIP) and dissolved in a CH3CN/Na2CO3 (300 μM)/NaOH (250 μM) (48.3:48.3:4.3, v/v/v) mixture in order to have a stable stock solution, avoiding self-aggregation of Aβ1–42. Then, the prepared 500 μM solution was diluted at 40 μM in phosphate buffer (0.215 M, pH 8.0).
(§4) The solutions of the tested compounds were prepared in MeOH (1 mg/mL), being further diluted in phosphate buffer to a concentration of 480 μM. For copper-induced aggregation studies, a solution of CuCl2 240 μM was prepared from a stock standard solution (0.015 M). To perform the assays for the Aβ1–42 aggregation inhibition, a reported method, based on the fluorescence emission of thioflavin T (ThT), was followed. Aβ1–42 (40 μM) was incubated at 37 °C, for 24 h with or without Cu(II) (40 μM) in a phosphate buffer in presence or absence of the single ligand (40 μM and 20 μM for compound 4). Then, the samples were added to a 96-well plate with […] of 5 μM ThT in 50 mM glycine-NaOH (pH 8.5) buffer. Blank samples were prepared without the peptide for each concentration. The ThT fluorescence was measured at 446 nm (excitation) and 485 nm (emission). The inhibition percentage of aggregation was calculated by Equation (2), in which IFi and IF0 corresponded to the fluorescence intensities, in the presence and in the absence of the tested compound, subtracted of the fluorescence intensities due to the respective blanks.
(§5) The reported values were obtained as the mean ± SEM of duplicate of three different experiments.

The target in series [10] is T3, Aβ1–42 with Cu(II). Put plainly: Inhibition of Cu-induced Aβ1–42 aggregation (thioflavin T fluorescence). In kind it is biochemical. To be noted: inhibitor 40 µM, copper 40 µM, Aβ1–42 40 μM, 24 h, 37 °C. The method, then:
as §1, §2, §3, §4, §5

In another series the test system is SH-SY5Y cells. Put plainly: Neuroprotection from Aβ42-induced toxicity (MTT). It is filed as cell-based, human. To be noted: compound 2.5 µM, 1 h pre-incubation plus 24 h co-incubation with Aβ42 1 µM. The method, then: Extracellular formation of senile plaques of aggregated Aβ along with the production of reactive oxygen species (ROS) are processes involved in the neurodegeneration that characterize AD [42]. […] Additionally, ROS production is also one of the hallmarks associated with AD pathogenesis.
SH-SY5Y human neuroblastoma cell line (ATCC-CRL-2266) was cultured in Dulbecco’s Modified Eagle Medium (DMEM) (Gibco-Invitrogen, Life Technologies Ltd., Liverpool, UK) supplemented with 10% of heat inactivated fetal bovine serum, 50 U/mL penicillin, and 50 μg/mL streptomycin, at 37 °C in 5% CO2. For the cell viability experiments, cells were plated with a density of 0.12 × 10^6 cells/mL. All the tested compounds (from 7 to 12) were dissolved in DMSO and aliquots were stored at −20 °C with a stock concentration of 25 mM. To choose the highest non-toxic concentration of the compounds, a concentration screening was performed (from 2.5 μM to 10 μM). For the experiments, all the compounds were added to the medium at a final concentration of 2.5 μM. […] Cells were pre-incubated for 1 h with the compounds and then incubated with Aβ1–42 or with Fe/Asc for an additional 24 h. […]
Cell viability was determined using the colorimetric 3-(4,5-dimethylthiazol-2-yl)-2,5-diphenyltetrazolium bromide (MTT) assay. […] The absorbance of the plate was measured at 570 nm. […]

Entries after “also recorded” stand apart in the source; their conditions may differ. Where two headings read alike, the source gives them in different places.

T1 sequence (O42275 24-633): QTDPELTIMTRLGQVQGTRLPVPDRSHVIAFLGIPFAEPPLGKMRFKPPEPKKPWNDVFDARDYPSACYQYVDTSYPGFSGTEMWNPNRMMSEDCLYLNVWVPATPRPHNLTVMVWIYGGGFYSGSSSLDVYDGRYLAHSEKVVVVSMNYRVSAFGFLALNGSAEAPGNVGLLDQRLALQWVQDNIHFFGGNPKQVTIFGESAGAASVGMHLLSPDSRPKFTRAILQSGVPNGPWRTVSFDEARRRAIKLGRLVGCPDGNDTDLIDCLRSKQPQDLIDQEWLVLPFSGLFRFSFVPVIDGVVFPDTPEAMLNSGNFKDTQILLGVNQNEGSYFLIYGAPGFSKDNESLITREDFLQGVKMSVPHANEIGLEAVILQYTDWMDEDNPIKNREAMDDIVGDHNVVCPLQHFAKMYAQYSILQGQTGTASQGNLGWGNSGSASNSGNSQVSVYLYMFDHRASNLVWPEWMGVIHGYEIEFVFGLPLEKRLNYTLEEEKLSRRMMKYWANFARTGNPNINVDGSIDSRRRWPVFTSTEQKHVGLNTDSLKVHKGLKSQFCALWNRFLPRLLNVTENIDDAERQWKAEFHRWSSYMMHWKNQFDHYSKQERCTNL
T2 sequence (P05067 672-713): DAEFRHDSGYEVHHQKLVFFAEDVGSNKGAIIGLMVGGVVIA
T3 sequence (P05067 672-713): as above

Consider `O=C(NCCN1CCN(Cc2ccccc2)CC1)c1ccc2nc(-c3ccccc3O)[nH]c2c1` [Compound 2], for which the Kd in [1] came out at 24 nM. Moreover, the IC50 – broadly, the concentration that gives 50% inhibition – in series [2] was 6.9 ± 0.6 µM. On Aβ1–42 [3], the “Aβ1–42 Aggregation Inhibition, Self-Induced” value is on record as 25.3 ^d %. The “Aβ1–42 Aggregation Inhibition, Cu-Induced” value on Aβ1–42 with Cu(II) [4] is listed as 37.7 ^d %. Moreover, in series [5], the “log K1, stepwise protonation constant (011)” value is on record as 9.04(3); the “log K2, stepwise protonation constant (021)” value was 6.76(6); the “log K3, stepwise protonation constant (031)” value is 3.37(7). The “pCu (pM = −log[M])” value in series [6] is recorded as 10.7. In addition, the “pZn (pM = −log[M])” value in series [7] is on record as 6.3.

As to `COc1ccc(-c2nc3ccc(C(=O)NCCN4CCN(Cc5ccccc5)CC4)cc3[nH]2)c(O)c1` [Compound 9, N-(2-(4-Benzylpiperazin-1-yl)ethyl)-2-(4-metoxy-2-hydroxyphenyl)-1H-benzo[d]imidazole-5-carboxamide], the IC50 in series [8] was 1.87 ± 0.8 µM. Moreover, the inhibition (commonly how much of the control response was suppressed) at 40 µM on Aβ1–42 [9] came out at 43.7%; on Aβ1–42 with Cu(II) [10], 66%. Moreover, in the series with SH-SY5Y cells, the “neuroprotective effect against Aβ42-induced cell toxicity (cell viability, MTT)” value was “remarkable reduction of Aβ-induced cell toxicity; also recorded: prevented Aβ-induced cell toxicity”.

Regarding `O=C(NCCN1CCN(Cc2ccccc2F)CC1)c1ccc2nc(-c3ccccc3O)[nH]c2c1` [Compound 10, N-(2-(4-(2-Fluorobenzyl)piperazin-1-yl)ethyl)-2-(2-hydroxyphenyl)-1H-benzo[d]imidazole-6-carboxamide], the IC50 in series [8] was 4.32 ± 0.03 µM. For the same compound, the inhibition at 40 µM on Aβ1–42 [9] is 39.1%; against Aβ1–42 with Cu(II) [10] it was 75.8%. The “neuroprotective effect against Aβ42-induced cell toxicity (cell viability, MTT)” value in the series with SH-SY5Y cells is on record as “remarkable reduction of Aβ-induced cell toxicity; also recorded: prevented Aβ-induced cell toxicity”.
